# Source: US20060051787A1, “Quantitative PCR for analysis of DNA damage induced by PGHS-2 (COX-2) or other factors” (priority 2004, published 2006)
# Where “and” joins values, the source holds several entries; their conditions need not be identical. Equal entries are not always repeated. Where two headings read alike, the source gives them in different places.
# Legend:
# [1] = test system: XPA Cells #12 (PGHS+/neo+); test: Cytotoxicity: colony-forming ability of PGHS-2 expressing XPA cells; format: cell-based, human; settings: for Colony Number (% of Control): treated two hours, incubated 10 days
# Experimental: (§1) XPA cells #12 (PGHS^+/neo^+) and #32 (PGHS^−/neo^+) were selected for cytotoxicity and mutagenicity assays. Cytotoxicity assays were carried out by assaying the loss of colony-forming ability as previously described (1).
# (§2) Cells were treated as follows: (a) no treatment, (b) 100 μM arachidonic acid (AA), (c) 200 μM AA, (d) 5 μM benzo(a)pyrene-7,8-dihydrodiol (BPD), (e) 5 μM BPD+100 μM AA, (f) 5 μM BPD+200 μM AA, (g) 100 μM butylated hydroxyanisole (BHA), (h) 100 μM BHA+5 μM BPD+100 AA and (i) 100 μM BHA+5 μM BPD+200 μM AA. BPD was dissolved in tetrahydrofuran.
# (§3) Cytotoxicity of environmental toxicants to PGHS-2^+/neo^+ (PGHS-2-dependent) XPA and wild type cells were assayed by measuring colony-forming ability. Mutagenicity of the chemical was assayed by measuring induction of 6-thioguanine resistance of the cells, which was a result of mutation of the cells to the HPRT-phenotype.
# (§4) Cytotoxicity assays were carried out by assaying the loss of colony-forming ability. Briefly, after harvesting, cells were plated at a cloning density of 600 cells/well in six-well plates and incubated for 7-12 days. The colonies were washed with PBS, fixed with methanol, stained with 0.04% methylene blue, and counted.
# 8.8 kb mitochondrial DNA = test: QPCR (14 cycles) followed by real-time PCR DNA damage analysis in XPA cells; format: cell-based, human
# Source text: QPCR products of 2.3 kb and 8.8 kb mitochondrial DNA were quantitated by real-time PCR with primers to produce a 112 bp fragment using the ABI PRISM® 7700 (Applied Biosystems). DNA replication was monitored by addition of a double-stranded DNA binding dye, SYBR® Green I (Applied Biosystems).
# Real-time PCR primers selected from the […].
# Concentrations of 8.8 kb PCR products were obtained after treatment of PGHS-2-expressing DNA damage repair deficient cells with t-BOOH (PGHS-2 substrate) and BPD (a premutagen) using a standard curve. The standard curve was obtained by real-time PCR with various concentrations of the 8.8 kb DNA.
# QPCR of a 16.2 kb, 8.8 kb and 2.3 kb mitochondrial DNA and 2.3 kb p53 and 0.5 kb β-globin nuclear DNA were carried out using biotinylated nucleotide primers. The reaction mixture contained 15 ng of template DNA, 1.2 mM MgSO4, 0.2 mM deoxynucleotide triphosphates, 0.2 μM biotinylated primers, and 1 unit of Platinum Pfx DNA polymerase (Life Technologies). Alternatively, the QPCR was carried out with the GeneAmp XL PCR kit (PerkinElmer/Roche) which contains rTth DNA polymerase XL and XL PCR buffer as previously described (9).
# The PCR was initiated with a 90° C. hot-start addition of the polymerase. Initial denaturation was carried out for 1 min at 94° C. followed by cycles of denaturation at 94° C. for 15 sec, primer extension and annealing at 66° C. for 12 min and final extension at 72° C. for 10 minutes. The DNA product was separated by electrophoresis on 1% agarose gel and visualized by ethidium bromide staining.
# Best fitting real-time PCR primers were selected using Primer Express program (Applied Biosystems). The PCR primers selected for a real-time PCR were used to replicate 112 bp of PCR for both 8.8 kb and 2.3 kb mitochondrial DNA. The primer binding sites are located in the middle 2.1 kb section (the missing part in 6.7 kb internal control) of 8.8 kb fragment. […] The real-time PCR primers for 112 bp product (Tm, 79° C.) are […] […]
# Standard curve for real-time PCR analysis was obtained with the 8.8 kb standards ranging from 0.012 to 1200 pg. Concentrations of the 8.8 kb DNA preparation were spectrophotometrically measured. […] Using the standard curve to obtain relationship of log concentrations of various standards and Ct, QPCR product levels of the samples were calculated.
# Real-time PCR analysis was carried out and specificity of the real-time PCR of the 8.8 kb fragment was analyzed by (a) agarose gel electrophoresis of 40 cycle replicated 112 bp real-time PCR product and (b) melting curve of the 112 bp product. […]
# Single 112 bp real-time PCR product was detected in each sample and a sharp melting curve at 79° C., which agreeded with the theoretical Tm, was obtained. […]
# [2] = test system: XPA human skin fibroblast cell line which expressed cytochrome P450 1A1; settings: by an endogenously formed metabolite of BPD; cited from earlier work
# [3] = test system: XPA Cells #32 (PGHS-/neo+); test: Cytotoxicity: colony-forming ability of negative control XPA cells; format: cell-based, human; settings: treated two hours, incubated 10 days
# Experimental: as §1, §2, §3, §4
# [4] = test system: 16.2 kb mitochondrial fragment; settings: cited from earlier work
# [5] = test system: 17.7 kb fragment of the nuclear beta-globin gene; settings: cited from earlier work
# [6] = test system: 16.2 kb mitochondrial DNA; test: QPCR DNA damage analysis in XPA cells #12; format: cell-based, human; settings: 0.5 mM t-BOOH; 3 hours; 26 cycles; FIG. 5
# Experimental: Panel A, ethidium bromide staining of biotinylated mitochondrial DNA fragments (16.2 kb), Panel B, visualization of the biotinylated mitochondrial DNA fragments by chemiluminescent assay (ECL) system, Panel C, a negative control, ethidium bromide staining of biotinylated β-globin (0.55 kb) DNA fragments and Panel D, visualization of the biotinylated β-globin DNA fragments by an ECL system.
# Lane 1, bp standards, lanes 2 and 3, cells treated with 1 mM t-BOOH+solvent for BPD (tetrahydrofuran), lanes 4 and 5, cells treated with 1 mM t-BOOH+5 μM BPD, lanes 6 and 7, cells treated with solvent for AA (ethanol), lanes 8 and 9, cells treated with 100 μM AA and lanes 10 and 11, cells treated with 100 μM AA+5 μM BPD. Cells were treated for 3 hours at 37° C., DNA was isolated and QPCRs were carried out using biotinylated nucleotide primers. […]
# DNA damage repair deficient XPA cells #12 (PGHS-2+) were grown and cells were treated for three hours at 37° C. with 0.5 mM or 1 mM t-BOOH with or without 5 μM to 15 μM BPD. […] DNA fragments were transferred to a nitrocellulose membrane and visualized by a streptavidin-horseradish peroxidase/chemiluminescent (ECL) system followed by quantitation with a densitometer. Visualization of the DNA fragments by the ECL system amplified intensity of each DNA band and made it possible to quantitate each DNA band using a densitometer. […]
# [7] = 200 μM for 15 minutes, in 1.5 hours
# [8] = 200 μM for 60 minutes, in 3.5 hours
smiles,measurement,setting,value
"O[C@H]1C=Cc2c(cc3ccc4cccc5ccc2c3c45)[C@@H]1O (relative stereo) [BPD, benzo(a)pyrene-trans-7,8-dihydrodiol]",Colony Number (% of Control),[1]; 5 μM BPD,214.3 ± 7.1 % of Control
same,colony number (text summary of Table 1),[1]; treatment for two hours,dramatically increased colony number
same,"% mean value of control, 112.47 pg","8.8 kb mitochondrial DNA; 5 mM BPD, samples 1 and 2",93.1 ± 2.7% and 111.9 ± 2.3%
same,pg DNA after 14 cycles of first PCR,"8.8 kb mitochondrial DNA; 5 mM BPD, samples 1 and 2 = separate cell culture experiments",104.71 ± 3.02 pg and 125.89 ± 2.59 pg
same,mutation frequencies versus wild type cell line,[2],approximately three-fold higher mutation frequencies
same,Colony Number (% of Control),[3]; 5 μM BPD,88.0 ± 3.3 % of Control
"CCCCC/C=C\C/C=C\C/C=C\C/C=C\CCCC(=O)O [AA, arachidonic acid]",colony number (text summary of Table 1),[1],dramatically increased colony number
same,Colony Number (% of Control),[1]; 100 μM AA,133.3 ± 12.6 % of Control
same,Colony Number (% of Control),[1]; 200 μM AA,140.5 ± 8.3 % of Control
same,Colony Number (% of Control),[3]; 100 μM AA,70.1 ± 0.6 % of Control
same,Colony Number (% of Control),[3]; 200 μM AA,72.0 ± 6.2 % of Control
"COc1ccc(O)c(C(C)(C)C)c1 [BHA, butylated hydroxyanisole]",Colony Number (% of Control),[1]; 100 μM BHA,211.9 ± 4.8 % of Control
same,colony number (text summary of Table 1),[1]; treatment for two hours,dramatically increased colony number
same,Colony Number (% of Control),[3]; 100 μM BHA,96.0 ± 3.8 % of Control
OO [hydrogen peroxide],repair of DNA damage,[4]; [7],completely repaired
same,repair of DNA damage,[4]; [8],no repair
same,level of PCR products of the mitochondrial fragment relative to that of the nuclear beta-globin gene,[4]; 200 and 400 μM for an hour,20%-30%
same,repair of DNA damage,[5]; [7],completely repaired
same,repair of DNA damage,[5]; [8],complete DNA repair
"CC(C)(C)OO [t-BOOH, tert-butyl hydroperoxide]","% mean value of control, 112.47 pg","8.8 kb mitochondrial DNA; 0.5 mM t-BOOH, samples 1 and 2",70.6 ± 2.0% and 46.7 ± 1.9%
same,pg DNA after 14 cycles of first PCR,"8.8 kb mitochondrial DNA; 0.5 mM t-BOOH, samples 1 and 2",79.40 ± 2.24 pg and 52.48 ± 2.19 pg
same,16.2 kb PCR product level,[6],−50 % of control
